The values that follow come from patent publication US20190284168A1, “PYRAZOLE DERIVATIES AS SGC STIMULATORS” (IRONWOOD PHARMACEUTICALS, INC., priority 2014, published 2019).

Molecules are shown by their SMILES.

One assay addresses T1, soluble guanylate cyclase (sGC) (Homo sapiens, UniProt Q02108+Q02153).
T1 construct: endogenously expressing soluble guanylate cyclase (sGC); endogenous in cells; host or cells: HEK293
T1 sequence (Q02153 1-619): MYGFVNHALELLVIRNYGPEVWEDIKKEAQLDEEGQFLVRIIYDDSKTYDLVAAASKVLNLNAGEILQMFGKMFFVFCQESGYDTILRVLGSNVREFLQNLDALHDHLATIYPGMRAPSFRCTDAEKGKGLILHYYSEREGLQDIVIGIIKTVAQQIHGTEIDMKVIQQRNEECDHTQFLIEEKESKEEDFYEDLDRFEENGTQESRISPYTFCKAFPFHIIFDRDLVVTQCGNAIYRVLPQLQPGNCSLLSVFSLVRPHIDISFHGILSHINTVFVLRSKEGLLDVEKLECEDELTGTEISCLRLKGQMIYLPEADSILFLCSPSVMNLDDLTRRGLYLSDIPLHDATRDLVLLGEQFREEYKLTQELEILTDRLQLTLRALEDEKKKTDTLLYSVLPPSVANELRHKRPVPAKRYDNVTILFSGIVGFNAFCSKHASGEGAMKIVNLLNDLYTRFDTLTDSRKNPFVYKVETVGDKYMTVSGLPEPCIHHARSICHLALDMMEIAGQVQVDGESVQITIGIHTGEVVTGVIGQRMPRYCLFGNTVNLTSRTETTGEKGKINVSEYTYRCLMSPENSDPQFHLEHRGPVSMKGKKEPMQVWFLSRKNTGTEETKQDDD
T1 sequence (Q02108 1-690): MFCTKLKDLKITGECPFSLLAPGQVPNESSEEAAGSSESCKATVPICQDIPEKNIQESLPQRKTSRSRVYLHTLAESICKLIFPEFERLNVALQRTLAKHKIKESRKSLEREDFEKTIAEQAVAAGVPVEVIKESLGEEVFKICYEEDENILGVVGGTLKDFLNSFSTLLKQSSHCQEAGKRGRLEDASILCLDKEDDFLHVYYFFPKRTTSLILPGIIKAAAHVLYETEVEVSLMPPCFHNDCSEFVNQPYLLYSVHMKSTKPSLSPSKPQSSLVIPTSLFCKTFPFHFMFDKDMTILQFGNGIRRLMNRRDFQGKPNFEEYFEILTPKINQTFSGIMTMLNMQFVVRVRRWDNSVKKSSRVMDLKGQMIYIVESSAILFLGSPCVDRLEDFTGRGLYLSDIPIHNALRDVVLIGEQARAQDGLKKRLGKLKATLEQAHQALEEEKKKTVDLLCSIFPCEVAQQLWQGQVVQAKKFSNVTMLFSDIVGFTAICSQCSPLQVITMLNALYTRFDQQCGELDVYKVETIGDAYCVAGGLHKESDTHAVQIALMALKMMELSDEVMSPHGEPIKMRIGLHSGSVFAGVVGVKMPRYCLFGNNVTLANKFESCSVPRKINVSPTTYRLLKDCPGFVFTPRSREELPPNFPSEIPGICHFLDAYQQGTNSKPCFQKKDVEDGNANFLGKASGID
In words: sGC-HEK-cGMP assay with LC/MS detection. In kind it is cell-based. Particulars: HEK293 whole cells, LC/MS detection of cGMP, 10 μM DETA-NONOate; 50% of high control response (30 μM Compound Y); read-out: Absolute EC50 (nM)- binned (~).
Protocol: Human embryonic kidney cells (HEK293), endogenously expressing soluble guanylate cyclase (sGC), were used to evaluate the activity of test compounds. Compounds stimulating the sGC enzyme should cause an increase in the intracellular concentration of cGMP. HEK 293 cells were seeded in Dulbecco's Modification of Eagle's Medium supplemented with fetal bovine serum (10% final) and penicillin (100 U/mL)/streptomycin (100 μg/mL) in a 50 μL volume at a density of 1.5×10^4 cells/well in a poly-D-lysine coated 384 well flat bottom plate. Cells were incubated overnight at 37° C. in a humidified chamber with 5% CO2. Medium was aspirated and cells were washed with 1× Hank's Buffered Saline Salt Solution (50 μL). Cells were then incubated for 15 minutes at 37° C. with 50 μL of a 0.5 mM 3-isobutyl-1-methylxanthine (IBMX) solution.
were then added to the assay mixture and the resulting mixture incubated at 37° C. for 20 minutes. After the 20 minute incubation, the assay mixture was aspirated and 10% acetic acid containing 150 ng/mL+3-cGMP (internal standard for LCMS) (50 μL) was added to the cells. The plate was incubated at 4° C. for 30 minutes in the acetic acid solution to stop the reaction and lyse the cells. The plates were then centrifuged at 1,000 g for 3 minutes at 4° C. and the supernatant transferred to a clean reaction plate for LCMS analysis.
cGMP concentrations were determined from each sample using the LCMS conditions below (Table 2) and calculated standard curve.
Data were fit using a 4-parameter fit (log(agonist) vs. response—variable slope) using GraphPad Prism Software v.5. n=2 for all compounds. […] Compounds failing to elicit a minimum response of 50% are reported as >30 μM.
Regarding `CS(=O)(=O)c1cc(-c2ncc(F)c(O)n2)nn1Cc1ccccc1F` [Compound 196], the EC50 was over 30000 nM.

On to `NCC(=O)OCCNc1nc(-c2cc(-c3ccon3)n(Cc3ccccc3F)n2)ncc1F` [Compound 199], for which the EC50 lay in the range of 100 to 1000 nM. In the case of `O=C(CN1CCCCC1)OCCNc1nc(-c2cc(-c3ccon3)n(Cc3ccccc3F)n2)ncc1F` [Compound 200], the EC50 is over 1000 nM. Take `O=C(OCCNc1nc(-c2cc(-c3ccon3)n(Cc3ccccc3F)n2)ncc1F)C1CCCCN1` (stereo not drawn) [Compound 202]: the EC50 lay in the range of 100 to 1000 nM. For the compound `O=C(OCCNc1nc(-c2cc(-c3ccon3)n(Cc3ccccc3F)n2)ncc1F)c1ccccn1` [Compound 206], the EC50 was under 100 nM.

In another assay the target is T2, sGC enzyme (Homo sapiens, UniProt Q02108+Q02153).
T2 construct: host or cells: HEK293 cells expressing GloSensor 40F cGMP
T2 sequence (Q02153 1-619): T1 sequence (Q02153 1-619)
T2 sequence (Q02108 1-690): T1 sequence (Q02108 1-690)
In words: cGMP GloSensor cell-based assay, 384-well format. As to conditions: read-out: sGC_HEK_GloSensor EC50/IC50 Abs (Norm) (nM) Binned (~). From the text:
Human embryonic kidney cells (HEK293) cells expressing GloSensor™ 40F cGMP (Part No: CS182801, Promega) were used to evaluate the activity of test compounds. The luminescent biosensors (engineered luciferase) that were incorporated into these cells detect cGMP formed by the compounds stimulating the sGC enzyme and emit luminescence.
cGMP GloSensor cells were maintained in Dulbecco's Modification of Eagle's Medium (DMEM) supplemented with fetal bovine serum (FBS) (10% final) and hygromycine (200 ug/ml). The day before assay, cells were plated in DMEM with 10% FBS in a 50 μL volume at a density of 1.5×10^4 cells/well in a poly-D-lysine coated 384-well flat white-bottom plate (Corning Cat No 35661). Cells were incubated overnight at 37° C. in a humidified chamber with 5% CO2. The next day, medium was removed and cells were replaced with 40 ul/well of GloSensor™, 2 mM (Promega Cat No E1291). Cells were treated for 90 minutes at 25° C. to allow the substrate to equilibrate in the cells. Test compounds and Diethylenetriamine NONOate (DETA-NONOate) was diluted to 3 mM (20×) in serum-free CO2 independent medium and serially diluted at 4× dilutions to create 5× dose curve from which 10 ul was added to the wells (x μM concentration for test compound solution and 10 μM concentration for DETA-NONOate solution; wherein x is one of the following final concentrations). • 30000 nM • 7500 nM • 1875 nM • 468.75 nM • 117.19 nM • 29.29 nM • 7.32 nM • 1.83 nM • 0.46 nM • 0.114 nM • 0.029 nM
For the kinetics studies, luminescense was measured right away for 0.2 sec per well with Envision (Perkin Elmer model No). For endpoint SAR screening, data were collected after 55 min incubation at room temperature.
Data analysis was carried out as indicated above in Example 2A.
Consider `O[C@@H]1CN(c2nc(-c3cc(-c4ccon4)n(Cc4ccccc4F)n3)ncc2F)C[C@H]1O` (racemic) [Compound 167, trans-1-(5-fluoro-2-(1-(2-fluorobenzyl)-5-(isoxazol-3-yl)-1H-pyrazol-3-yl)pyrimidin-4-yl)pyrrolidine-3,4-diol], for which the EC50 is under 100 nM. Consider `O=c1[nH]c(-c2cc(-c3ccsn3)n(Cc3ccccc3F)n2)ncc1F` [Compound 111], for which the EC50 was under 100 nM. Consider `O=c1[nH]c(-c2cc(-c3ccon3)n(CCC(F)(F)C(F)(F)F)n2)ncc1F` [Compound 128, 5-fluoro-2-(5-(isoxazol-3-yl)-1-(3,3,4,4,4-pentafluorobutyl)-1H-pyrazol-3-yl)pyrimidin-4(3H)-one], for which the EC50 was over 1000 nM. Consider `CC(C)(C)OC(=O)C[C@H]1C[C@@H](CCNc2nc(-c3cc(-c4ccon4)n(Cc4ccccc4F)n3)ncc2F)OC(C)(C)O1` [Compound 132], for which the EC50 is under 100 nM. Same read-out and setting: the figure for `O=C1C[C@H](O)C[C@@H](CCNc2nc(-c3cc(-c4ccon4)n(Cc4ccccc4F)n3)ncc2F)O1` [Compound 133, (4R,6R)-6-(2-((5-fluoro-2-(1-(2-fluorobenzyl)-5-(isoxazol-3-yl)-1H-pyrazol-3-yl)pyrimidin-4-yl)amino)ethyl)-4-hydroxytetrahydro-2H-pyran-2-one] is under 100 nM. Same read-out and setting: with `O=C(O)C[C@H](O)C[C@H](O)CCNc1nc(-c2cc(-c3ccon3)n(Cc3ccccc3F)n2)ncc1F` [Compound 134, (3R,5R)-7-((5-fluoro-2-(1-(2-fluorobenzyl)-5-(isoxazol-3-yl)-1H-pyrazol-3-yl)pyrimidin-4-yl)amino)-3,5-dihydroxyheptanoic acid] the figure was 100 to 1000 nM; with `OC(CNc1nc(-c2cc(-c3ncco3)n(Cc3ccccc3F)n2)ncc1F)(C(F)(F)F)C(F)(F)F` [Compound 141], 100 to 1000 nM; with `Fc1cnc(-c2cc(-c3ccon3)n(Cc3cccc(F)c3F)n2)nc1` [Compound 142], over 1000 nM. `Oc1nc(-c2cc(-c3ccon3)n(Cc3ncccc3F)n2)ncc1F` [Compound 143, 5-fluoro-2-(1-((3-fluoropyridin-2-yl)methyl)-5-(isoxazol-3-yl)-1H-pyrazol-3-yl)pyrimidin-4(3H)-one]: the EC50 was over 1000 nM. With `Fc1cnc(-c2cc(-c3ccon3)n(Cc3ncccc3F)n2)nc1` [Compound 144], the EC50 was over 1000 nM. The same measure, in the same setting: the figure for `Nc1ccnc(-c2cc(-c3ccon3)n(Cc3ncccc3F)n2)n1` [Compound 145] is over 1000 nM; for `Nc1nc(-c2cc(-c3ccon3)n(Cc3ncccc3F)n2)ncc1F` [Compound 146] it is 100 to 1000 nM; for `CN(CC(O)c1ccc(O)c(O)c1)c1nc(-c2cc(-c3ccon3)n(Cc3ccccc3F)n2)ncc1F` (stereo not drawn) [Compound 168, 4-(2-((5-fluoro-2-(1-(2-fluorobenzyl)-5-(isoxazol-3-yl)-1H-pyrazol-3-yl)pyrimidin-4-yl)(methyl)amino)-1-hydroxyethyl)benzene-1,2-diol] it is under 100 nM. Consider `O[C@@H]1CN(c2nc(-c3cc(-c4ccon4)n(Cc4ccccc4F)n3)ncc2F)C[C@@H]1O` [Compound 169, cis-1-(5-fluoro-2-(1-(2-fluorobenzyl)-5-(isoxazol-3-yl)-1H-pyrazol-3-yl)pyrimidin-4-yl)pyrrolidine-3,4-diol], for which the EC50 is under 100 nM.

Regarding `OCCN1CCN(c2nc(-c3cc(-c4ccon4)n(Cc4ccccc4F)n3)ncc2F)CC1` [Compound 170, 2-(4-(5-fluoro-2-(1-(2-fluorobenzyl)-5-(isoxazol-3-yl)-1H-pyrazol-3-yl)pyrimidin-4-yl)piperazin-1-yl)ethanol], the EC50 was under 100 nM. As to `COC(=O)C1CCN(c2nc(-c3cc(-c4ccon4)n(Cc4ccccc4F)n3)ncc2F)CC1` [Compound 171, methyl 1-(5-fluoro-2-(1-(2-fluorobenzyl)-5-(isoxazol-3-yl)-1H-pyrazol-3-yl)pyrimidin-4-yl)piperidine-4-carboxylate], the EC50 was under 100 nM. Regarding `COC(=O)CCN(C)c1nc(-c2cc(-c3ccon3)n(Cc3ccccc3F)n2)ncc1F` [Compound 172, methyl 3-((5-fluoro-2-(1-(2-fluorobenzyl)-5-(isoxazol-3-yl)-1H-pyrazol-3-yl)pyrimidin-4-yl)(methyl)amino)propanoate], the EC50 is under 100 nM. On the same count and under the same terms, with `NCC(=O)OC1CCN(c2nc(-c3cc(-c4ccon4)n(Cc4ccccc4F)n3)ncc2F)CC1` [Compound 173, 1-(5-fluoro-2-(1-(2-fluorobenzyl)-5-(isoxazol-3-yl)-1H-pyrazol-3-yl)pyrimidin-4-yl)piperidin-4-yl 2-aminoacetate] the figure was under 100 nM; with `COC(=O)CCCNc1nc(-c2cc(-c3ccon3)n(Cc3ccccc3F)n2)ncc1F` [Compound 174, methyl 4-((5-fluoro-2-(1-(2-fluorobenzyl)-5-(isoxazol-3-yl)-1H-pyrazol-3-yl)pyrimidin-4-yl)amino)butanoate], under 100 nM; with `COC(=O)CCCCNc1nc(-c2cc(-c3ccon3)n(Cc3ccccc3F)n2)ncc1F` [Compound 175, methyl 5-((5-fluoro-2-(1-(2-fluorobenzyl)-5-(isoxazol-3-yl)-1H-pyrazol-3-yl)pyrimidin-4-yl)amino)pentanoate], under 100 nM. For the compound `OCCCCNc1nc(-c2cc(-c3ccon3)n(Cc3ccccc3F)n2)ncc1F` [Compound 176, 4-((5-fluoro-2-(1-(2-fluorobenzyl)-5-(isoxazol-3-yl)-1H-pyrazol-3-yl)pyrimidin-4-yl)amino)butan-1-ol], the EC50 was under 100 nM.

Consider `NCC(=O)OCCCNc1nc(-c2cc(-c3ccon3)n(Cc3ccccc3F)n2)ncc1F` [Compound 177, 3-((5-fluoro-2-(1-(2-fluorobenzyl)-5-(isoxazol-3-yl)-1H-pyrazol-3-yl)pyrimidin-4-yl)amino)propyl 2-aminoacetate], for which the EC50 is under 100 nM.
